These are literature values, as cited in US9399657B2, “Chemiluminescent methods and reagents for analyte detection” (priority 2007, dated 2016).

The target in this series is firefly luciferase (Photinus pyralis, UniProt P08659). The settings on record: read-out: IC50 (inhibitor of firefly luciferase bioluminescence reaction).

SMILES strings stand for the structures. pIC50: −log10 of the molar value.

Sequence of firefly luciferase (P08659 whole entry): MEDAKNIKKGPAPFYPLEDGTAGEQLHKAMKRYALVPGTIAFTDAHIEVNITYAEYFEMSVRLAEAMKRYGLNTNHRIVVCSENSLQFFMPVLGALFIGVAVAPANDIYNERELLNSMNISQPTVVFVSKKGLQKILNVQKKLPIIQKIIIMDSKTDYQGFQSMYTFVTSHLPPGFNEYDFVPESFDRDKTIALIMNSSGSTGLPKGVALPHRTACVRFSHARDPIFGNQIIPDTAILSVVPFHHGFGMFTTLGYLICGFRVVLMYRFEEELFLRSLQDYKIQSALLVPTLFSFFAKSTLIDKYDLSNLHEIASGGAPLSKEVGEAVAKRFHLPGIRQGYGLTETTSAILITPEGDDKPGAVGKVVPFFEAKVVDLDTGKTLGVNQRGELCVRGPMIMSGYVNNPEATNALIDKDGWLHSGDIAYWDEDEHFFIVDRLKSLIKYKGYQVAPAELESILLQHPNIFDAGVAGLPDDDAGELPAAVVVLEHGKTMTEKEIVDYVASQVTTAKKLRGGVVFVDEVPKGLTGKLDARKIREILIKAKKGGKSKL

The pIC50 is the negative decadic logarithm of the IC50, by convention in mol/L. For the molecule `O=C(O)c1csc(-c2nc3ccc(O)cc3s2)n1` [firefly dehydroluciferin], the pIC50 is 8.22.
